Results: PubChem BioAssay (NCI)
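The concentration for 50% growth inhibition is given as GI50. TGI: total growth inhibition.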

Legend:
Assay in all cases: inhibition of tumour cell growth, NCI panel, 384-well format
HT29 colon = system: HT29 colon
K-562 leukemia = system: K-562 leukemia
UO-31 renal = system: UO-31 renal
NCI-H322M lung = system: NCI-H322M lung
HCT-15 colon = system: HCT-15 colon
RXF 393 renal = system: RXF 393 renal
OVCAR-8 ovarian = system: OVCAR-8 ovarian
LOX IMVI melanoma = system: LOX IMVI melanoma
OVCAR-4 ovarian = system: OVCAR-4 ovarian
NCI-H226 lung = system: NCI-H226 lung
MDA-MB-468 breast = system: MDA-MB-468 breast
SK-MEL-5 melanoma = system: SK-MEL-5 melanoma
IGROV1 ovarian = system: IGROV1 ovarian

Molecule NC(=O)c1cccc2cn(-c3ccc([C@@H]4CCCNC4)cc3)nc12 has a GI50 (HT29 colon) of 13.4 µM, a TGI (HT29 colon) of 26.6 µM and a GI50 (K-562 leukemia) of 10.1 µM. The TGI (K-562 leukemia) was 21.8 µM, the GI50 (UO-31 renal) was 14 µM and the TGI (UO-31 renal) was 27.7 µM. The GI50 (NCI-H322M lung) was 18.2 µM, the TGI (NCI-H322M lung) was 34.1 µM and the GI50 (HCT-15 colon) was 11.9 µM. For the same molecule, the TGI (HCT-15 colon) was 24.8 µM, the GI50 (RXF 393 renal) was 16.7 µM and the TGI (RXF 393 renal) was 30.5 µM. The GI50 (OVCAR-8 ovarian) was 7.24 µM, the TGI (OVCAR-8 ovarian) was 20.6 µM and the GI50 (LOX IMVI melanoma) was 7.47 µM. For the same molecule, the TGI (LOX IMVI melanoma) was 19.9 µM, the GI50 (OVCAR-4 ovarian) was 25.2 µM and the TGI (OVCAR-4 ovarian) was 44.5 µM. The GI50 (NCI-H226 lung) was 12.5 µM, the TGI (NCI-H226 lung) was 25.2 µM and the GI50 (MDA-MB-468 breast) was 1.49 µM. The TGI (MDA-MB-468 breast) was 4.17 µM, the GI50 (SK-MEL-5 melanoma) was 7.81 µM and the TGI (SK-MEL-5 melanoma) was 19.4 µM. It also gave a GI50 (IGROV1 ovarian) of 12.9 µM and a TGI (IGROV1 ovarian) of 27.2 µM.
